In patent US20220378923A1, “BET DEGRADER” (KYOWA KIRIN CO., LTD., priority 2019, published 2022) one finds IC90 data, which are given here for 17 compounds.

Molecules are shown by their SMILES.

The test system of the first assay is SU-DHL-4 cells. The assay can be described thus: Inhibitory effect on cell viability in SU-DHL-4 cell line (Test Example 1). The settings on record: Homo sapiens; SU-DHL-4 cells, 72 hours, Cell Counting Kit-8; concentration showing 90% inhibition of cell viability; read-out: SU-DHL-4 Cell Viability Inhibition Rate IC90. It is filed as cell-based, human. An outline of the steps:
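SU-DHL-4 cells were grown at 37° C. under 5% CO2 in RPMI1640 with 10 vol % heat-inactivated FBS plus penicillin/streptomycin, seeded and precultured for 18 to 25 hours, then exposed to test compound at 0.1 vol % DMSO for 72 hours. Viability was read with Cell Counting Kit-8 by absorbance at 450 nm.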
(Tetrazolium assays rely on reduction of a dye to a coloured formazan, in cell work by metabolically active cells.)
For orientation: IC90 means the concentration at which the effect reaches the 90% level. As to `CCC(=O)N1c2ccccc2[C@H](Nc2ccc(NC(=O)CCCC(=O)Nc3ccc(Oc4ccccc4-c4cn(C)c(=O)cc4OC)cc3)cc2)C[C@@H]1C` [Compound 16k, N^1-(4-(2-(4-Methoxy-1-methyl-6-oxo-1,6-dihydropyridin-3-yl)phenoxy)phenyl)-N5-(4-(((2S,4R)-2-methyl-1-propionyl-1,2,3,4-tetrahydroquinolin-4-yl)amino)phenyl)glutaramide], the 90% effect concentration (IC90) is 0.9 nM.

Regarding `CCC(=O)N1c2ccccc2[C@H](NCC23CC(C(=O)N4CC(C(=O)Nc5ccc(N[C@@H]6C[C@H](C)N(C(=O)CC)c7ccccc76)cc5)C4)(C2)C3)C[C@@H]1C` (relative stereo) [Compound 17n, 1-(3-((((2S,4R)-2-Methyl-1-propionyl-1,2,3,4-tetrahydroquinolin-4-yl)amino)methyl)bicyclo[1.1.1]pentane-1-carbonyl)-N-(4-(((2S*,4R*)-2-methyl-1-propionyl-1,2,3,4-tetrahydroquinolin-4-yl)amino)phenyl)azetidine-3-carboxamide], the IC90 worked out at 5.14 nM.

For the compound `CCC(=O)N1c2ccccc2[C@H](Nc2ccc(CNCc3cn(-c4ccc(N[C@@H]5C[C@H](C)N(C(=O)CC)c6ccccc65)nc4)nn3)cc2)C[C@@H]1C` [Compound 17e, 1-((2S,4R)-2-Methyl-4-((4-((((1-(6-(((2S,4R)-2-methyl-1-propionyl-1,2,3,4-tetrahydroquinolin-4-yl)amino)pyridin-3-yl)-1H-1,2,3-triazol-4-yl)methyl)amino)methyl)phenyl)amino)-3,4-dihydroquinolin-1(2H)-yl)propan-1-one], the IC90 stood at 1.82 nM.

On to `CCC(=O)N1c2ccccc2[C@H](Nc2ccc(NC(=O)CNC(=O)Nc3ccc(N[C@@H]4C[C@H](C)N(C(=O)CC)c5ccccc54)cc3)cc2)C[C@@H]1C` (relative stereo) [Compound 6j, N-(4-(((2S*,4R*)-2-Methyl-1-propionyl-1,2,3,4-tetrahydroquinolin-4-yl)amino)phenyl)-2-(3-(4-(((2S*,4R*)-2-methyl-1-propionyl-1,2,3,4-tetrahydroquinolin-4-yl)amino)phenyl)ureido)acetamide], for which the 90% effect concentration (IC90) amounted to 0.13 nM.

Staying with this assay, now noted: SU-DHL-4 cells, 72 hours, Cell Counting Kit-8; concentration showing 90% inhibition of cell viability; read-out: SU-DHL-4 Cell Viability Inhibition Rate IC90.
As to `CCC(=O)N1c2ccccc2[C@H](Nc2ccc(NC(=O)NC3CN(C(=O)C4CCC(N[C@@H]5C[C@H](C)N(C(=O)CC)c6ccccc65)CC4)C3)cc2)C[C@@H]1C` (stereo partly drawn) [Compound 9h, 1-(1-((1R,4r)-4-(((2S,4R)-2-Methyl-1-propionyl-1,2,3,4-tetrahydroquinolin-4-yl)amino)cyclohexane-1-carbonyl)azetidin-3-yl)-3-(4-(((2S,4R)-2-methyl-1-propionyl-1,2,3,4-tetrahydroquinolin-4-yl)amino)phenyl)urea], the concentration for an effect of 90% (IC90) worked out at 7.16 nM.

In the case of `CCC(=O)N1c2ccccc2[C@H](Nc2ccc(Cc3cnc4n3CCN(C(=O)C3CCC(N[C@@H]5C[C@H](C)N(C(=O)CC)c6ccccc65)CC3)C4)cc2)C[C@@H]1C` (relative stereo) [Compound 7l, 1-((2S*,4R*)-2-Methyl-4-(((1r,4R)-4-(3-(4-(((2S,4R)-2-methyl-1-propionyl-1,2,3,4-tetrahydroquinolin-4-yl)amino)benzyl)-5,6,7,8-tetrahydroimidazo[1,2-a]pyrazine-7-carbonyl)cyclohexyl)amino)-3,4-dihydroquinolin-1(2H)-yl)propan-1-one], the IC90 turned out to be 0.28 nM.

With `CCC(=O)N1c2ccccc2[C@H](Nc2ccc(C(=O)NCCCNC(=O)c3ccc(Cn4c(CC)cc5c4CCCC5=O)cc3)cc2)C[C@@H]1C` (relative stereo) [Compound 1e, 4-[(2-Ethyl-4-oxo-4,5,6,7-tetrahydro-1H-indol-1-yl)methyl]-N-[3-(4-{[(2S*,4R*)-2-methyl-1-propionyl-1,2,3,4-tetrahydroquinolin-4-yl]amino}benzamide)propyl]benzamide], the IC90 was 39.8 nM.

Regarding `CCC(=O)N1c2ccccc2[C@H](Nc2ccc(NC(=O)CNC(=O)C3CCC(N[C@@H]4C[C@H](C)N(C(=O)CC)c5ccccc54)CC3)cc2)C[C@@H]1C` (relative stereo) [Compound 7k, (1R,4R)-4-(((2S*,4R*)-2-Methyl-1-propionyl-1,2,3,4-tetrahydroquinolin-4-yl)amino)-N-(2-((4-(((2S,4R)-2-methyl-1-propionyl-1,2,3,4-tetrahydroquinolin-4-yl)amino)phenyl)amino)-2-oxoethyl)cyclohexane-1-carboxamide], the IC90 was found to be 0.62 nM.

As for `CCC(=O)N1c2ccccc2[C@H](Nc2ccc(C(=O)NCC3(N[C@H]4CC[C@H](N[C@@H]5C[C@H](C)N(C(=O)CC)c6ccccc65)CC4)COC3)cc2)C[C@@H]1C` [Compound 7j, 4-(((2S,4R)-2-Methyl-1-propionyl-1,2,3,4-tetrahydroquinolin-4-yl)amino)-N-((3-(((1R,4R)-4-(((2S,4R)-2-methyl-1-propionyl-1,2,3,4-tetrahydroquinolin-4-yl)amino)cyclohexyl)amino)oxetan-3-yl)methyl)benzamide], the 90% effect concentration (IC90) turned out to be 64 nM.

Regarding `CCC(=O)N1c2ccccc2[C@@H](Nc2ccc(-n3cc(CNC(=O)C4CCC(N[C@@H]5C[C@H](C)N(C(=O)CC)c6ccccc65)CC4)nn3)cn2)C[C@H]1C` (relative stereo) [Compound 17h, (1R,4S)-4-(((2S,4R)-2-Methyl-1-propionyl-1,2,3,4-tetrahydroquinolin-4-yl)amino)-N-((1-(6-(((2R*,4S*)-2-methyl-1-propionyl-1,2,3,4-tetrahydroquinolin-4-yl)amino)pyridin-3-yl)-1H-1,2,3-triazol-4-yl)methyl)cyclohexane-1-carboxamide], the IC90 stood at 0.2 nM.

Take `CCC(=O)N1c2ccccc2[C@H](Nc2ccc(NC(=O)N3CC(NC(=O)C4CCC(N[C@@H]5C[C@H](C)N(C(=O)CC)c6ccccc65)CC4)C3)cc2)C[C@@H]1C` (stereo partly drawn) [Compound 7a, 3-((1R,4r)-4-(((2S,4R)-2-Methyl-1-propionyl-1,2,3,4-tetrahydroquinolin-4-yl)amino)cyclohexane-1-carboxamide)-N-(4-(((2S,4R)-2-methyl-1-propionyl-1,2,3,4-tetrahydroquinolin-4-yl)amino)phenyl)azetidine-1-carboxamide]: the IC90 was 10.8 nM.

Turning to `CCC(=O)N1c2ccccc2[C@H](Nc2ccc(C(=O)NCCNC(=O)c3ccc(C4=N[C@@H](CC(=O)OC(C)(C)C)c5nnc(C)n5-c5sc(C)c(C)c54)cc3)cc2)C[C@@H]1C` [Compound 1o, tert-Butyl 2-[(S)-2,3,9-trimethyl-4-(4-{[2-(4-{[(2S,4R)-2-methyl-1-propionyl-1,2,3,4-tetrahydroquinolin-4-yl]amino}benzamide)ethyl]carbamoyl}phenyl)-6H-thieno[3,2-f][1,2,4]triazolo[4,3-a][1,4]diazepin-6-yl]acetate], the IC90 was determined as 3.18 nM.

`CCC(=O)N1c2ccccc2[C@H](Nc2ccc(-c3cnc4n3CCN(C(=O)C3CCC(N[C@@H]5C[C@H](C)N(C(=O)CC)c6ccccc65)CC3)C4)cc2)C[C@@H]1C` (relative stereo) [Compound 8h, 1-((2S*,4R*)-2-methyl-4-(((1R,4R)-4-(3-(4-(((2S,4R)-2-methyl-1-propionyl-1,2,3,4-tetrahydroquinolin-4-yl)amino)phenyl)-5,6,7,8-tetrahydroimidazo[1,2-a]pyrazine-7-carbonyl)cyclohexyl)amino)-3,4-dihydroquinolin-1(2H)-yl)propan-1-one]: the IC90 is 1.14 nM.

Turning to `CCC(=O)N1c2ccccc2[C@H](Nc2ccc(-c3ccc(CNC(=O)C4CCC(N[C@@H]5C[C@H](C)N(C(=O)CC)c6ccccc65)CC4)s3)cc2)C[C@@H]1C` (relative stereo) [Compound 8e, (1R,4R)-4-(((2S*,4R*)-2-Methyl-1-propionyl-1,2,3,4-tetrahydroquinolin-4-yl)amino)-N-((5-(4-(((2S,4R)-2-methyl-1-propionyl-1,2,3,4-tetrahydroquinolin-4-yl)amino)phenyl)thiophen-2-yl)methyl)cyclohexane-1-carboxamide], the 90% effect concentration (IC90) was 0.2 nM.

As for `CCC(=O)N1c2ccccc2[C@H](Nc2ccc(NC(=O)NCCNC(=O)C3CCC(N[C@@H]4C[C@H](C)N(C(=O)CC)c5ccccc54)CC3)cc2)C[C@@H]1C` (relative stereo) [Compound 8n, (1R,4r)-4-(((2S*,4R*)-2-Methyl-1-propionyl-1,2,3,4-tetrahydroquinolin-4-yl)amino)-N-(2-(3-(4-(((2S,4R)-2-methyl-1-propionyl-1,2,3,4-tetrahydroquinolin-4-yl)amino)phenyl)ureido)ethyl)cyclohexane-1-carboxamide], the IC90 was found to be 1.17 nM.

`CCC(=O)N1c2ccccc2[C@H](NCc2ccc(C(=O)NCc3cn(-c4ccc(N[C@@H]5C[C@H](C)N(C(=O)CC)c6ccccc65)cc4)nn3)cc2)C[C@@H]1C` (relative stereo) [Compound 10h, 4-((a2S*,4R*)-2-Methyl-1-propionyl-1,2,3,4-tetrahydroquinolin-4-yl)amino)methyl)-N-((1-(4-(((2S,4R)-2-methyl-1-propionyl-1,2,3,4-tetrahydroquinolin-4-yl)amino)phenyl)-1H-1,2,3-triazol-4-yl)methyl)benzamide]: the IC90 came out at 0.35 nM.

Consider `CCC(=O)N1c2ccccc2[C@H](Nc2ccc(-c3cnn(CCNC(=O)C4CCC(N[C@@H]5C[C@H](C)N(C(=O)CC)c6ccccc65)CC4)c3)cc2)C[C@@H]1C` (relative stereo) [Compound 8o, (1R,4r)-4-(((2S*,4R*)-2-Methyl-1-propionyl-1,2,3,4-tetrahydroquinolin-4-yl)amino)-N-(2-(4-(4-(((2S,4R)-2-methyl-1-propionyl-1,2,3,4-tetrahydroquinolin-4-yl)amino)phenyl)-1H-pyrazol-1-yl)ethyl)cyclohexane-1-carboxamide], for which the concentration for an effect of 90% (IC90) is 0.49 nM.
